How the values were obtained:
Details in all cases: 72 h
KG-1 [1] = assay: cell viability (% survival relative to DMSO control, bortezomib = 0%); higher = less cytotoxic
Summary of the method: (§1)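 Fifteen myeloid leukaemia cell lines (10 AML, 5 CML) were seeded at a density titrated to the linear growth range. They went into 384-well plates with compounds pre-printed at 1, 10, 100, 1000 or 10000 nM in duplicate. After 72 h at 37 °C with 5% CO2, viability was read by CellTiter-Glo luminescence. Values are percent survival, with vehicle set to 100% and a 10 µM positive control to 0%, averaged over the duplicates.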

K-562 [2] = assay: as above
Summary of the method: as §1

ML-2 [3] = assay: as above
Summary of the method: as §1

BV-173 [4] = assay: as above
Summary of the method: as §1

THP-1 [5] = assay: as above
Summary of the method: as §1

HL-60 [6] = assay: as above
Summary of the method: as §1

KCL-22 [7] = assay: as above
Summary of the method: as §1

MV4-11 [8] = assay: as above
Summary of the method: as §1

MOLM-13 [9] = assay: as above
Summary of the method: as §1

SHI-1 [10] = assay: as above
Summary of the method: as §1

NOMO-1 [11] = assay: as above
Summary of the method: as §1

KU-812 [12] = assay: as above
Summary of the method: as §1

Mono-Mac-6 [13] = assay: as above
Summary of the method: as §1

HEL [14] = assay: as above
Summary of the method: as §1

HL-60 [15] = assay: area under dose-response curve (viability, 1 nM-10 uM) (fraction (0-1)); higher = more sensitive
Summary of the method: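 A rescreen of the full library used HL-60 cells in RPMI 1640 with 10% FBS on 384-well plates, run in duplicate at five tenfold concentrations (1–10,000 nM). Each screen included DMSO or 100 nM of one of three metabolic inhibitors and ran 72 h at 37 °C, 5% CO2. CellTiter-Glo viability was scaled between DMSO and 10 μM proteasome-inhibitor wells. Any area under the curve comes from four-parameter log-logistic fits with drc and PharmacoGx.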

KG-1 [16] = tested on: KG-1
Summary of the method: (§2)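 Fifteen myeloid leukaemia lines in RPMI 1640 were treated for 72 h at 37 °C and 5% CO2 with five tenfold doses from 1 to 10,000 nM, in duplicate. ATP luminescence was normalised to vehicle and to a positive control at 10 µM, then fitted with a four-parameter log-logistic model. The IC50 came from these fits.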

K-562 [17] = tested on: K-562
Summary of the method: as §2

ML-2 [18] = tested on: ML-2
Summary of the method: as §2

BV-173 [19] = tested on: BV-173
Summary of the method: as §2

THP-1 [20] = tested on: THP-1
Summary of the method: as §2

HL-60 [21] = tested on: HL-60
Summary of the method: as §2

KCL-22 [22] = tested on: KCL-22
Summary of the method: as §2

MV4-11 [23] = tested on: MV4-11
Summary of the method: as §2

MOLM-13 [24] = tested on: MOLM-13
Summary of the method: as §2

SHI-1 [25] = tested on: SHI-1
Summary of the method: as §2

NOMO-1 [26] = tested on: NOMO-1
Summary of the method: as §2

KU-812 [27] = tested on: KU-812
Summary of the method: as §2

Mono-Mac-6 [28] = tested on: Mono-Mac-6
Summary of the method: as §2

HEL [29] = tested on: HEL
Summary of the method: as §2

LAMA-84 = tested on: LAMA-84
Summary of the method: as §2

Cc1c(-c2ccc(-c3ccccc3F)cc2)nc2ccc(F)cc2c1C(=O)O [Brequinar]
Details | area under dose-response curve, co-treatment: pictilisib 100 nM | cell viability, 1 nM [%] | cell viability, 10 nM [%] | cell viability, 100 nM [%] | cell viability, 1000 nM [%] | cell viability, 10000 nM [%]
BV-173 [4] | – | 94.7 | 90.3 | 93.3 | 118 | 32.2
HEL [14] | – | 101 | 99.2 | 102 | 69 | 27.8
HL-60 [6] | – | 98.5 | 95.8 | 93.2 | 82.7 | 50
HL-60 [15] | < 0.0301 | – | – | – | – | –
K-562 [2] | – | 98.1 | 89.2 | 92.9 | 103 | 40.4
KCL-22 [7] | – | 101 | 94.3 | 97.9 | 56.3 | 29.2
KG-1 [1] | – | 105 | 102 | 95 | 105 | 99
KU-812 [12] | – | 87.2 | 95.4 | 93.1 | 100 | 80.8
ML-2 [3] | – | 97.2 | 98.2 | 88.9 | 107 | 40.3
MOLM-13 [9] | – | 80.9 | 84.4 | 85.3 | 95.9 | 9.24
MV4-11 [8] | – | 106 | 100 | 94.3 | 110 | 36.8
Mono-Mac-6 [13] | – | 103 | 95.9 | 97.9 | 91.9 | 50.2
NOMO-1 [11] | – | 97.3 | 95.3 | 104 | 104 | 89.5
SHI-1 [10] | – | 85.3 | 99 | 103 | 111 | 63.9
THP-1 [5] | – | 99.9 | 98.5 | 99 | 102 | 83.3

Details | IC50 (cell viability) [µM]
BV-173 [19] | 7.19
HEL [29] | 1.48
HL-60 [21] | 6.09
K-562 [17] | 8.59
KCL-22 [22] | 0.94
KG-1 [16] | > 10
KU-812 [27] | > 10
LAMA-84 | 9.69
ML-2 [18] | 8.46
MOLM-13 [24] | 4.34
MV4-11 [23] | 7.76
Mono-Mac-6 [28] | > 10
NOMO-1 [26] | > 10
SHI-1 [25] | > 10
THP-1 [20] | > 10

O=C(O)CCCCC(CCSCc1ccccc1)SCc1ccccc1 (centres undefined) [CPI-613]
Details | area under dose-response curve, co-treatment: AZD3965 100 nM | area under dose-response curve, co-treatment: DMSO vehicle | area under dose-response curve, co-treatment: GSK2194069 100 nM | area under dose-response curve, co-treatment: pictilisib 100 nM | cell viability, 1 nM [%] | cell viability, 10 nM [%] | cell viability, 100 nM [%] | cell viability, 1000 nM [%] | cell viability, 10000 nM [%]
BV-173 [4] | – | – | – | – | 89 | 97.3 | 91.1 | 94.4 | 93.8
HEL [14] | – | – | – | – | 109 | 91 | 106 | 103 | 73.8
HL-60 [6] | – | – | – | – | 107 | 111 | 110 | 87.9 | 101
HL-60 [15] | < 0.0301 | < 0.0301 | < 0.0301 | < 0.0301 | – | – | – | – | –
K-562 [2] | – | – | – | – | 94 | 90.4 | 102 | 89.2 | 107
KCL-22 [7] | – | – | – | – | 110 | 108 | 105 | 115 | 97.2
KG-1 [1] | – | – | – | – | 92.4 | 99.7 | 103 | 96.5 | 93.6
KU-812 [12] | – | – | – | – | 98.9 | 94.3 | 99.6 | 105 | 89.7
ML-2 [3] | – | – | – | – | 89.7 | 94.3 | 103 | 98.2 | 95.8
MOLM-13 [9] | – | – | – | – | 93.6 | 99 | 98.5 | 75.5 | 94.5
MV4-11 [8] | – | – | – | – | 107 | 90.5 | 96.6 | 93 | 105
Mono-Mac-6 [13] | – | – | – | – | 92.8 | 86.9 | 96.3 | 94.2 | 96.3
NOMO-1 [11] | – | – | – | – | 101 | 95.2 | 98.2 | 100 | 97.2
SHI-1 [10] | – | – | – | – | 89.9 | 110 | 108 | 95.8 | 107
THP-1 [5] | – | – | – | – | 102 | 90.1 | 96.2 | 93.7 | 97.3

Details | IC50 (cell viability) [µM]
BV-173 [19] | > 10
HEL [29] | > 10
HL-60 [21] | > 10
K-562 [17] | > 10
KCL-22 [22] | > 10
KG-1 [16] | > 10
KU-812 [27] | > 10
LAMA-84 | > 10
ML-2 [18] | > 10
MOLM-13 [24] | > 10
MV4-11 [23] | > 10
Mono-Mac-6 [28] | > 10
NOMO-1 [26] | > 10
SHI-1 [25] | > 10
THP-1 [20] | > 10

CCCc1cc(-c2nc(-c3ccc(C)cc3)cs2)ccn1 [Fatostatin]
Details | area under dose-response curve, co-treatment: AZD3965 100 nM | area under dose-response curve, co-treatment: DMSO vehicle | area under dose-response curve, co-treatment: GSK2194069 100 nM | area under dose-response curve, co-treatment: pictilisib 100 nM | cell viability, 1 nM [%] | cell viability, 10 nM [%] | cell viability, 100 nM [%] | cell viability, 1000 nM [%] | cell viability, 10000 nM [%]
BV-173 [4] | – | – | – | – | 90.6 | 98.4 | 94.9 | 112 | 24.8
HEL [14] | – | – | – | – | 92.6 | 97.8 | 92.1 | 108 | 90.4
HL-60 [6] | – | – | – | – | 110 | 84.6 | 95.5 | 105 | 43.1
HL-60 [15] | < 0.0301 | < 0.0301 | 0.0533 | 0.0342 | – | – | – | – | –
K-562 [2] | – | – | – | – | 103 | 95.9 | 102 | 117 | 60.2
KCL-22 [7] | – | – | – | – | 98.3 | 86.2 | 92.5 | 113 | 55.3
KG-1 [1] | – | – | – | – | 102 | 99.8 | 106 | 90.3 | 23.1
KU-812 [12] | – | – | – | – | 100 | 101 | 87.2 | 106 | 74.1
ML-2 [3] | – | – | – | – | 93.4 | 101 | 92 | 111 | 29.5
MOLM-13 [9] | – | – | – | – | 89.2 | 78.1 | 106 | 108 | 104
MV4-11 [8] | – | – | – | – | 105 | 95.9 | 93.2 | 98.2 | 65.7
Mono-Mac-6 [13] | – | – | – | – | 94.5 | 97.3 | 101 | 111 | 87.8
NOMO-1 [11] | – | – | – | – | 98.3 | 91.3 | 104 | 111 | 97.4
SHI-1 [10] | – | – | – | – | 106 | 91.7 | 105 | 114 | 14.4
THP-1 [5] | – | – | – | – | 95.2 | 90.1 | 108 | 98.5 | 81.1

Details | IC50 (cell viability) [µM]
BV-173 [19] | 6.07
HEL [29] | > 10
HL-60 [21] | 8.84
K-562 [17] | > 10
KCL-22 [22] | > 10
KG-1 [16] | 2.76
KU-812 [27] | > 10
LAMA-84 | > 10
ML-2 [18] | 6.69
MOLM-13 [24] | > 10
MV4-11 [23] | > 10
Mono-Mac-6 [28] | > 10
NOMO-1 [26] | > 10
SHI-1 [25] | 4.85
THP-1 [20] | > 10

Source: the supplement of paper PMC8671470
